Laboratory results as given in patent publication US20240390337A1, “RELA/RSH INHIBITORS FOR THE TREATMENT OR PREVENTION OF MEDICAL BIOFILMS” (DREXEL UNIVERSITY, priority 2021, published 2024).

Legend:
E. coli C biofilm [1] = assay: Biofilm persistence assay with ampicillin (crystal violet); assay type: cell-based
Procedure: Biofilm persistence and viability were assessed with the hit compounds in combination with an antibiotic. It has been determined that sub-MICs (minimum inhibitory concentration) of antibiotic result in increased biofilm formation. Ampicillin was used in all of the assays due to its bactericidal effect. Sub-MIC concentrations of ampicillin were determined by growth measurements (OD600). […] Biofilm Persistence Assays with Ampicillin: Biofilms were grown for 24 or 48 h as described elsewhere herein. Planktonic cells were removed, and the biofilms were washed twice with 250 μL sterile PBS solution. Two hundred microliters of fresh LB medium with various concentrations of ampicillin were dispensed into the wells. After 18 h of incubation at 37° C., the volume of biofilm was measured by CV staining as described elsewhere herein.

Pseudomonas aeruginosa = assay: Toxin production by P. aeruginosa (Example 4, FIG. 42); assay type: cell-based; settings: read-out: EC50 of inhibition of toxin production
RelA enzyme [2] = target: T1, RelA enzyme (Escherichia coli, UniProt P0AG20); assay: Semi-HTS and IC50, in vitro RelA ppGpp production assay ([α-32P]GTP); assay type: biochemical, E. coli; settings: for IC50: concentration gradient, in vitro radio isotope assay
Procedure: The next step of the semi-HTS was to run the 40 in silico determined compounds in an in vitro RelA assay at a relatively high concentration of 200 μM, to test if there is any effect on RelA ppGpp production using the α-32P-GTP radio isotope in vitro assay. […] From this assay, two compounds were picked to go into later assays (C14 [4.2%], C22 [13.4%]).
The follow-up assay to the semi-HTS is determination of in vitro half-maximal inhibitory concentration (IC50). In vitro IC50 is completed by a concentration gradient run on the in vitro radio isotope assay (FIG. 29B). […] C14 was originally purchased from Enamine®; however, it was later synthesized in-house as more was needed than could be purchased.
RelA enzyme was purified as described in Example 2.

E. coli C [3] = assay: E. coli C aggregation assay; settings: high salt, low temperature, amino acid starvation
Procedure: E. coli C was grown in LB Miller broth at 30° C. with shaking (250 rpm) with or without compounds. E. coli C ΔrelA mutant was also grown as a control. One milliliter of the culture was transferred to standard polypropylene spectrophotometer cuvettes to measure planktonic cells densities (OD600). Remaining cultures were vortexed ˜1 min and 1 mL was aliquoted into cuvettes to measure the total cell densities (OD600). Aggregation was calculated as a ratio of planktonic to total cell density.

P. aeruginosa PA14 [4] = assay: Biofilm formation in P. aeruginosa PA14; assay type: cell-based
Procedure: (§1) Biofilm Inhibition Assays: For biofilm formation on polystyrene surfaces, flat-bottom 96-well microtiter plates (Corning Inc.) were used. […] The biofilm mass was measured by the CV staining assay described elsewhere herein.

E. coli C biofilm [5] = assay: Biofilm inhibition assay (crystal violet); assay type: cell-based; settings: results not shown
Procedure: Studies were conducted in 96-well high-throughput assays. In the biofilm inhibition assay, compounds were added to the wells at the beginning of the experiment. For the biofilm dispersal assay, the biofilm was allowed to grow for 24 and 48 h, the wells were washed with sterile phosphate-buffered saline (PBS), and fresh medium supplemented with the compounds was added to the wells. The amount of biofilm was measured after 24 h.
as §1

P. aeruginosa PA14 [6] = tested on: P. aeruginosa PA14
Procedure: P. aeruginosa PA14 was grown overnight in LB Miller broth at 37° C. with shaking (250 rpm). […] This was then grown for 18 h at 37° C. Cells were pelleted by centrifugation. One milliliter of supernatant was collected, and 1 mL of chloroform was added to the supernatant. Layers were separated and OD690 was taken for chloroform layer (blue). OD690 was normalized to culture cell density OD600.

P. aeruginosa PA01 = assay: Biofilm formation in P. aeruginosa PA01; assay type: cell-based; settings: results not shown
Procedure: as §1

E. coli C [7] = assay: Cell growth curves (planktonic growth, OD600); settings: 30 μg·mL−1
Procedure: Cell Growth Curves: The effect of the hit compounds on bacterial growth was tested by adding compounds at multiple concentrations to the bacterial culture (100× diluted overnight culture; approximately 10^7 cells) in fresh LB medium. Two hundred microliters aliquots were pipetted into 96-well plates and placed into a Biotek HT or Tecan Infinite M200 Pro plate reader for 18 h at 37° C. Plates were shaken during incubation and the optical density (OD630 or OD600) was measured every 15 min.
The effect of the hit compounds on bacterial growth was tested by adding compounds at 200 μM (with DMSO control) to the bacterial culture (100× diluted overnight culture; approximately 10^7 cells) in fresh LB medium. Two hundred microliter aliquots were pipetted into 96-well plates, which were placed into a Biotek HT or Tecan Infinite M200 Pro plate reader for 18 h at 37° C. Plates were shaken during incubation and the optical density (OD630 or OD600) was measured every 15 min.

RelA enzyme [8] = target: T1, RelA enzyme; assay: In vitro (p)ppGpp quantification (RelA ppGpp production assay, [γ-32P]ATP, TLC); settings: 20 μM compound
Procedure: The direct (p)ppGpp detection in vivo and in vitro assays relied on different 32P radioactive nucleotides (γ-32P-ATP, α-32P-GTP) for use as substrates, and thin-layer chromatography (TLC) to separate the reaction products (stationary phase: polyethylenimine cellulose).
Both methods required TLC with a stationary phase of a polyethyleneimine (PEI)-cellulose plate and a mobile phase of 1 M potassium phosphate monobasic.
In vitro (p)ppGpp quantification: in vitro (p)ppGpp quantification was carried out. […] Roughly 0.4 μg of RelA protein was added to a 1.5-mL microcentrifuge tube containing a reaction mix composed of 1×PBS, 5 mM MgCl2, 0.5 mM ATP, 0.5 mM GTP, 0.5 mM GDP, and 20 μCi[γ-32P]ATP (3,000 Ci mmol-1; PerkinElmer) and varying concentrations of the compound of interest. These reactions were incubated at 37° C. for 1 h. The reactions were stopped by addition of 5 μL formic acid (88%). The reaction mixtures were then spotted on a stationary-phase polyethyleneimine (PEI)-cellulose TLC plate using potassium phosphate monobasic (1.5 M) as the mobile-phase. The plates were then dried, and the radiation levels were read using a Molecular Dynamics Storage Phosphor Screen. A Molecular Dynamics Storm 840 Phosphor imager Scanner was used to read the phosphor screen and ImageJ was used to process the images.

E. coli C biofilm [9] = assay: Synergistic effects of compounds and ampicillin on biofilm biomass (crystal violet); assay type: cell-based; settings: versus antibiotic-only control; for reduction of biofilm biomass at Amp40: ampicillin 40 μg·mL−1, S3-G1A and S3-G1B 50 μM, IDR1018 5 μM; for reduction in biofilm biomass at Amp50: ampicillin 50 μg·mL−1
Procedure: Biofilm Dispersal Assays: For biofilm formation on polystyrene surfaces, flat-bottom 96-well microtiter plates (Corning Inc.) were used. […] These were allowed to grow for 24 h. The planktonic cells and medium were then aspirated, and the plates were washed twice with 1×PBS. Fresh LB with hit compounds were added to the biofilm wells. These cultures were then allowed to incubate at 37° C. overnight. Cell density were measured (OD600) using a Multiscan Go plate reader (ThermoFisher), and 30 μL Gram crystal violet (CV) (Remel; 3 g crystal violet, 50 mL isopropanol, 50 mL ethanol, 900 mL purified water) was applied for staining for 1 h. Plates were washed with water and air dried, and CV was solubilized with an ethanol:acetone (4:1) solution. The OD570 was determined from this solution, and the biofilm volume was calculated as the ratio of OD570 to OD600. Synergistic Effects of Compounds and Antibiotics: Biofilms were grown for 24, 48, or 72 h as described elsewhere herein. Planktonic cells were then removed, and biofilms were washed twice with 250 μL sterile PBS solution. Two hundred microliter aliquots of fresh LB medium with multiple concentrations of the tested compounds and ampicillin were dispensed into the wells. After 18 h of incubation at 37° C., the biofilm mass was measured as described elsewhere herein. For the AlamarBlue viability test, 4 μL of AlamarBlue (Invitrogen) was added and plates were incubated in a Biotek HT plate reader at 37° C. for 4 h. Cell viability was measured as fluorescence at 530/590 nm (excitation/emission) versus compound concentration or initial cell density.

[10] = tested on: (p)ppGpp production in E. coli C; assay: In vivo (p)ppGpp quantification in E. coli C (32P orthophosphate, serine hydroxamate, TLC); assay type: cell-based; settings: 20 μM compound
Procedure: In vivo (p)ppGpp Quantification: In vivo (p)ppGpp quantification was carried out. One milliliter of overnight cell culture of E. coli C was placed in 1.5-mL microcentrifuge tubes and pelleted. To this pellet was added 50 μL of a reaction mixture containing 20 μCi orthophosphoric acid and 40 μM serine hydroxamate in 1×MOPS minimal medium. The cell pellet was resuspended by gentle vortexing and placed in an incubator for 1 h. Cell growth arrest and cell lysis were completed by addition of 15 μL formic acid (88%). The lysate was then centrifuged to remove any insoluble components and the supernatant was spotted on a stationary-phase PEI-cellulose TLC plate. Plates were processed and analyzed as described elsewhere herein.

E. coli C biofilm [11] = assay: AlamarBlue viability assay of biofilm cells, compounds plus ampicillin; assay type: cell-based
Procedure: Synergistic Effects of Compounds and Antibiotics: Biofilms were grown for 24, 48, or 72 h as described elsewhere herein. Planktonic cells were then removed, and biofilms were washed twice with 250 μL sterile PBS solution. Two hundred microliter aliquots of fresh LB medium with multiple concentrations of the tested compounds and ampicillin were dispensed into the wells. After 18 h of incubation at 37° C., the biofilm mass was measured as described elsewhere herein. For the AlamarBlue viability test, 4 μL of AlamarBlue (Invitrogen) was added and plates were incubated in a Biotek HT plate reader at 37° C. for 4 h. Cell viability was measured as fluorescence at 530/590 nm (excitation/emission) versus compound concentration or initial cell density.

T1 sequence (P0AG20 whole entry): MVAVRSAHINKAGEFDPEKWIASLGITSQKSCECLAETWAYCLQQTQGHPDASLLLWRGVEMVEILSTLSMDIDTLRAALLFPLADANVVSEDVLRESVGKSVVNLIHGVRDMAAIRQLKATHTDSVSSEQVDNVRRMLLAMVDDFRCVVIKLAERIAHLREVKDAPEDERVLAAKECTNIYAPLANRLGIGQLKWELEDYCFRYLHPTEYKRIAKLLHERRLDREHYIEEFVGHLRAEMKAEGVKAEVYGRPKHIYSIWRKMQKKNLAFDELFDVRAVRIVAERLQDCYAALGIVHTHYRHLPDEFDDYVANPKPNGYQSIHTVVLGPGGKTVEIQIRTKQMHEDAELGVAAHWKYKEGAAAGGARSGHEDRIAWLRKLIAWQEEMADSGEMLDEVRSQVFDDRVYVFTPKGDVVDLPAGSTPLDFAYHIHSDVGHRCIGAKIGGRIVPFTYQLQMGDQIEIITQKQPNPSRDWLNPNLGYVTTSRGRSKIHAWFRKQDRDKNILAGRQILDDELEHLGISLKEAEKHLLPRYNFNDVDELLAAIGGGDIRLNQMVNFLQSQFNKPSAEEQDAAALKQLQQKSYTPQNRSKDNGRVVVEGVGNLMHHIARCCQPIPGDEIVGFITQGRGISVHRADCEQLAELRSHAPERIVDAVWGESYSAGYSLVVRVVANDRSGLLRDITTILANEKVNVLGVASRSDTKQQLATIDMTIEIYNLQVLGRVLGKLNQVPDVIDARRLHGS

Row | Compound | IC50 (RelA enzyme [2]) [µM] | effect on pyocyanin production (P. aeruginosa PA14 [6]) | reduction of ppGpp production compared to untreated sample, in vitro assay (RelA enzyme [8]) [%] | reduction of biofilm biomass at Amp40 (E. coli C biofilm [9]) [%] | reduction in biofilm biomass at Amp50 (E. coli C biofilm [9]) [%] | reduction in ppGpp production, in vivo assay [10] | further results
1 | CC1(C)S[C@@H]2[C@H](NC(=O)[C@H](N)c3ccccc3)C(=O)N2[C@H]1C(=O)O [Ampicillin] | – | – | – | – | – | – | ampicillin concentration with the highest biofilm biomass (E. coli C biofilm [1]): 80 µg/mL; effect on amount of biofilm (E. coli C biofilm [1]): significantly increased the amount of biofilm
2 | O=C(O)Cn1cc(C[C@H]2NC(=O)NC2=O)nn1 [Compound C14] | 54 | – | – | – | – | – | EC50 (Pseudomonas aeruginosa): 0.0395 µM
3 | O=C(O)CCNC(=O)c1cccc(-n2cc(Br)cn2)c1 [Compound C22, 3-(3-(4-bromo-1H-pyrazol-1-yl)benzamido)propanoic acid] | 93 | produced an effect, it never reached the level of C14 | – | – | – | – | E. coli C aggregation (E. coli C [3]): slightly absent; biofilm formation compared to the DMSO control (P. aeruginosa PA14 [4]): reduced biofilm formation but not significantly; effect on biofilm formation (E. coli C biofilm [5]): little effect; effect on biofilm formation (P. aeruginosa PA01): little effect; ppGpp production relative to the untreated control (set at 100%) (RelA enzyme [2]; 200 μM compound): 13.4%
4 | O=C(N[C@H](C(=O)O)c1ccc(Cl)cc1)c1cc(-c2ccc(O)cc2)n[nH]1 [Compound S3-G1A, (S)-2-(4-chrlorphenyl)-2-(3-(4-hydroxyphenyl)-1H-pyrazole-5carboxamido) acetic acid] | – | small effect | 71.7 | 97.9 | 67.9 | 31.4% | effect on planktonic growth rate / bacterial growth (E. coli C [7]): no effect; reduction of cell viability (AlamarBlue) at Amp30 (E. coli C biofilm [11]; ampicillin 30 μg·mL−1, compound 50 μM): 55.4%; decrease of cell viability (AlamarBlue) at higher concentrations of antibiotic (E. coli C biofilm [11]; higher concentrations of ampicillin (not specified)): 29.2%
5 | CC(C)C(=O)Nc1nc2c(ncn2[C@H]2C[C@H](OC(=O)NCC(=O)NCC(=O)O)[C@@H](COC(=O)NCC(=O)NCC(=O)O)O2)c(=O)[nH]1 [Relacin, reference compound] | – | – | 45.4 | – | – | no effect | –
6 | IDR1018 [reference compound] | – | – | – | 75.4 | 65.2 | – | –
